The values below come from patent US20090117090A1, “INHIBITION OF GLYCOGEN SYNTHASE KINASE 3 BETA IN ARTERIAL REPAIR AND STENT RE-ENDOTHELIALIZATION” (OTTAWA HEART INSTITUTE RESEARCH CORPORATION, priority 2007, published 2009).

Molecules are shown by their SMILES. Read-outs that look alike come from different tables or passages of the source.

In data set [1] the test system is EPCs. The data set is described as follows: EPC culture and enumeration (AcLDL uptake / UEA-1 dual positive cells). The class given is cell-based, human. From the text:
EPCs were isolated and cultured as previously described (17). Briefly, peripheral blood mononuclear cells (PBMCs) were isolated by ficoll gradient centrifugation from either healthy young volunteers or patients with angiographically verified CAD. Blood was collected by venipuncture and anticoagulated with EDTA. 5×10^6 PBMCs were then washed and resuspended in EGM-2 media (Clonetics) and plated on fibronectin coated plates. Media were supplemented with either LiCl (Sigma), GSKI VIII (Calbiochem; Cat. No. 361549; AR-A014418:N-(4-Methoxybenzyl)-N′-(5-nitro-1,3-thiazol-2-yl)urea), or vehicle (DMSO) at the indicated concentrations.
GSK inhibitor VIII is a GSK-3β isoform specific inhibitor derived from a class of compounds shown to inhibit GSK-3 both in vitro (54) and in vivo (53). After 96 hours of culture, non-adherent cells were removed and the plates washed three times with buffered wash solution. Cells were then incubated for another 72 hours before being labeling, enumeration, or being used in various assays.
For the task of enumeration EPCs were arbitrarily defined as cells dually positive for AcLDL uptake and ulex europeus agglutinin I (UEAI) binding. […] Plates of cells were again washed, and incubated for a DAPI nuclear counterstain before a coverslip was applied to the well and double positive cells were counted in 6 random high power fields (×200 magnification). […]

Data set [2] concerns β-catenin. The data set is described as follows: β-catenin nuclear levels by western blot of EPC nuclear extracts. The note with it: EPCs cultured in media supplemented with GSKI (2×) vs control media. The class given is cell-based, human. As to the method:
β-catenin nuclear levels were assayed by western blot of nuclear extracts from both control and treated EPCs. Briefly, nuclei were separated by differential centrifugation and total nuclear protein was extracted. Protein was then run on an acrylamide gel and transferred onto a PVDF membrane overnight. After transfer, the membrane was blocked for one hour in 5% skim milk powder in 0.1% Tween-20 in Tris buffered saline. This was then incubated for 48 hours with primary antibody of a monoclonal anti-phospho-β-catenin (Cell Signaling Technologies) diluted 1:1000 in 5% skim milk powder in TBS-T. After incubation the membrane was then washed 3 times for 5 minutes each with TBS-T. The membrane was then incubated in secondary antibody of goat anti rabbit IgG (H+ L) conjugated with horseradish peroxidase (1:5000 in TBS-T) for 24 hours. The membrane was washed and quantitated using ECL Plus (Amersham Biosciences).

Data set [3] deals with EPCs. The data set is described as follows: EPC cell survival assay. The class given is cell-based, human. To be noted: both healthy controls and patients with CAD, n=6. On the procedure:
Day seven EPCs were used for all experiments unless otherwise indicated. For the cell survival assay, six high power fields were enumerated on day 7 for each individual. Subsequently, cells were washed and the media changed every four days after which cells were again enumerated. Data are expressed as a percentage of initial cells present on day 7. For apoptosis studies cells from patients and healthy controls were cultured for 7 days. Cells were then lifted and recoated at a density of 2×10^6 mature EPCs per well. The cells were then allowed to incubate for an additional four days prior to being lifted with EDTA supplementation of the media and gentle agitation. Cells were pelleted and resuspended in HBSS. Prior to analysis by flow cytometry, 10 μL of propidium iodide was added to the cell suspension. EPCs were identified by uptake of acLDL-alexa488 (Invitrogen) and UEA-1 FITC labeling in separate experiments. Uptake of propidium iodide identified apoptotic cells. A total of ten thousand events was analyzed and the data expressed as a percentage of total EPCs being apoptotic. All experiments were conducted on a Beckman Coulter Cytomics FC 500 cytometer.

Data set [4] deals with EPCs. The data set can be described thus: EPC apoptosis by propidium iodide flow cytometry. The class given is cell-based, human. To be noted: 2×GSKI; EPCs of healthy controls and CAD patients. In general terms: A flow cytometer gives signals particle by particle.
For data set [5], the system named is VEGF. The data set can be described thus: VEGF secretion by EPCs (ELISA). Type of data set: cell-based, human. To be noted: 24 hours in VEGF free media.
The subject of data set [6] is EPCs. The data set can be described thus: EPC fibronectin adhesion assay. The class given is cell-based, human. On the procedure:
Day 7 EPCs were detached from their fibronectin coated plates by incubation with 0.5 mmol EDTA. Cells were pelleted, resuspended in EGM-2 and enumerated. Subsequently, 100,000 EPCs were plated in 24-well fibronectin coated plates and incubated for 30 minutes. After, the wells were washed three times with HBSS and the adherent cells labeled and six random high power fields enumerated. Blocking experiments were performed using a specific VLA-4 antibody (MAB169832, Chemicon) at a concentration of 10 ug/mL and allowing cells to incubate for 2 hours.

In data set [7] the test system is α-integrin subunits 1-5. The data set can be described thus: Quantitative PCR of α-integrin subunits in EPCs. Type of data set: cell-based, human.
Data set [8] has as its system EPCs. The data set is described as follows: In vitro prediction of maximal tolerated dose of GSKI in EPC culture. The class given is cell-based, human. To be noted: multiples of IC50 concentration in EGM-2; 1× to 100× tested. On the procedure:
In accordance with another aspect of the present invention, local delivery of inhibitor at the site of arterial injury represents an alternative strategy for enhancing arterial repair and mitigating neointima formation. GSKI coated stents (GCSs) were manufactured for use in a rabbit carotid model of stent neointima formation as previously described (27). Prior to implanting these GCSs, in vitro experiments were performed in order to predict the maximal tolerated dose of GSKI we could deliver in vivo. EPCs were cultured in EGM-2 supplemented with 1×, 2×, 5×, 10×, 20×, 30×, 40×, 50×, and 100× concentrations of the GSKI. […] To manufacture the GCSs, bare metal stents were coated with muco-gel supplemented with DMSO (vehicle for GSKI) or muco-gel containing 20×GSKI as previously described (27). Once coated, stents were allowed to dry in a sterile environment and packaged aseptically prior to delivery. Stents were deployed in New Zealand white rabbit carotid arteries according to a previous protocol and the stent neointima was subjected to quantitative histomophometry 14 days post-stent deployment (22). […] Despite rapid re-endothelialization of GCSs, a neointima formed in both groups but was 50% smaller in area in GCSs vs. control stents. […]

The target in data set [9] is GSK-3β (Homo sapiens, UniProt P49841). To be noted: cited from earlier work.
Chain of GSK-3β (P49841 whole entry, species assumed): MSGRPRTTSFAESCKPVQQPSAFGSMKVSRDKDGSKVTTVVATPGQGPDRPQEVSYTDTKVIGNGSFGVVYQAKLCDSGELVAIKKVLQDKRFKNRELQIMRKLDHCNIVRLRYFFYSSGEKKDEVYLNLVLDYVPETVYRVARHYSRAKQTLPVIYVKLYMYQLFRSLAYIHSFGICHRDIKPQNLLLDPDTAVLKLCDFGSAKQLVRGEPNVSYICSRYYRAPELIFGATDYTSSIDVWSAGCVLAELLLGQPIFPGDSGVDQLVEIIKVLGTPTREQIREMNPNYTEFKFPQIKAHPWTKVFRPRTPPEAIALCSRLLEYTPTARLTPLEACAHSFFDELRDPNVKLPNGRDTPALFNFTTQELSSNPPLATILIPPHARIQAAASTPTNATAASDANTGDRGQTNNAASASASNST

Regarding `COc1ccc(CNC(=O)Nc2ncc([N+](=O)[O-])s2)cc1` [GSKI, N-(4-Methoxybenzyl)-N′-(5-nitro-1,3-thiazol-2-yl)urea], the EPC yield result in data set [1] is on record as “increase”. The nuclear b-catenin levels result in data set [2] was “increased levels”. For the same compound, in [3], the “EPC survival (long term viability)” value is listed as “significantly improves long term viability”. In addition, the “percentage of apoptotic cells” value in [4] is listed as “reduction”. For the same compound, the “VEGF secretion by mature EPCs” value in data set [5] is given as “increase”. The “EPC adherence, healthy controls” value in data set [6] (EPCs from healthy controls, fibronectin, 30 minutes) was “dose dependent increase”. In addition, in data set [6] (EPCs from patients with CAD, fibronectin, 30 minutes), the “increase in EPC adherence, patients cells” value was around 4 fold. Further, the “number of adherent cells after 30 minutes” value in data set [6] (VLA4 blocking experiment, without antibody) is recorded as “increased”. The “mRNA levels of α-1, -2, -3 and -5 integrin subunits” value in data set [7] (GSKI 1× and 2× vs control) was “No difference”. In addition, the “mRNA of α-4 integrin subunit” value in [7] (both concentrations of the GSKI (1×, 2×)) is “upregulation”. The “dose resulting in increased EPC death and attenuated function” value in [8] was at least 30 ×.

For `[Cl-].[Li+]` [LiCl, lithium chloride], the EPC yield entry in data set [1] (7 days culture, EPCs from both healthy controls and CAD patients, GSKI at 104 nm and 208 nm) is listed as “increases”. Moreover, in data set [9], the “doses in which LiCl inhibits GSK-3β” value was 10 to 20 mM.
